In one data set the test system is motor neurons. The data set is described as follows: Cholesterol content of pure motor neuron cultures (Amplex Red Cholesterol Assay). The data set is classed as cell-based, rat. The settings on record: after 30 minutes of treatment. Here is the method:
Two hundred thousand motor neurons were plated in wells of a 96 well dish and after 24 hrs. treated with βMCD or vehicle. Thirty minutes later cholesterol content was determined using the Amplex® Red Cholesterol Assay kit (Molecular Probes) according to the manufacturers instructions. All determinations were made in quintuplicate and normalized to protein content (determined using Protein Assay kit (Bio-Rad)).
Finally to begin to determine the biological relevance of the lipid raft signaling complex, we asked if their disruption with cholesterol depleting agents would affect the capacity of BDNF to confer excitotoxic sensitivity upon motor neurons. Pure motor neurons were grown in the presence of CT-1 but in the absence of BDNF for 24 hours at which point the cholesterol depleting agent, β-methylcyclodextin (βMCD) or vehicle was added to the cultures. Thirty minutes later, BDNF or vehicle was added to the culture and 3 hours later the excitoticity assay was performed (FIG. 6b). We determined the amount of cholesterol in our pure motor neuron cultures after 30 minutes of βMCD treatment and found an ˜25% reduction in comparison with vehicle treatment (βMCD v. vehicle; 404±31 μg/μg protein versus 550±16 μg/μg protein, n=5 samples, t-test, p<0.001). […]

The test system of data set [1] is pure motor neurons grown in CT-1. Kind of data set: BDNF-conferred excitotoxic sensitivity of pure motor neurons after cholesterol depletion. In kind it is cell-based. The following applies: for excitotoxic cell death: acute BMCD or vehicle followed by BDNF or vehicle, then kainate. Here is the method: Finally to begin to determine the biological relevance of the lipid raft signaling complex, we asked if their disruption with cholesterol depleting agents would affect the capacity of BDNF to confer excitotoxic sensitivity upon motor neurons. Pure motor neurons were grown in the presence of CT-1 but in the absence of BDNF for 24 hours at which point the cholesterol depleting agent, β-methylcyclodextin (βMCD) or vehicle was added to the cultures. Thirty minutes later, BDNF or vehicle was added to the culture and 3 hours later the excitoticity assay was performed (FIG. 6b). We determined the amount of cholesterol in our pure motor neuron cultures after 30 minutes of βMCD treatment and found an ˜25% reduction in comparison with vehicle treatment (βMCD v. vehicle; 404±31 μg/μg protein versus 550±16 μg/μg protein, n=5 samples, t-test, p<0.001). In terms of cell death, a statistically significant difference between experimental groups was identified by ANOVA (F(5,42)=32.797; P<0.001) and a post hoc analysis (Scheffé with level of significance set at P<0.05) indicated excitotoxic death only occurred in the (+)BDNF/(−)βMCD treatment group (# of motor neurons exposed to vehicle or kainate; 57±7 versus 40±4).

Another data set concerns ALS patients. The settings on record: intrathecal 25 μg/day or 150 μg/day versus vehicle, 18 months; cited from earlier work.

In the case of β-methylcyclodextin [βMCD], the “reduction of cholesterol in comparison with vehicle” value in the data set on motor neurons is given as roughly 25%. The “# of motor neurons” value is on record as 51±5 in data set [1] ((+)BDNF/(+)βMCD group, exposed to kainate); 58±4 in data set [1] ((+)BDNF/(+)βMCD group, exposed to vehicle); 60±5 in data set [1] ((−)BDNF/(+)βMCD group, exposed to kainate); 60±3 in data set [1] ((−)BDNF/(+)βMCD group, exposed to vehicle). In data set [1] (BMCD alone), the “toxicity to motor neurons” value is on record as “non-toxic”. In data set [1], the excitotoxic cell death entry was “did not occur”.

B1: BDNF: brain-derived neurotrophic factor, activates the receptor tyrosine kinase TrkB (protein, UniProt P23560 19-247, looked up)
Neurotrophic factor BDNF …: APMKEANIRGQGGLAYPGVRTHGTLESVNGPKAGSRGLTSLADTFEHVIEELLDEDQKVRPNEENNKDADLYTSRVMLSSQVPLEPPLLFLLEEYKNYLDAANMSMRVRRHSDPARRGELSVCDSISEWVTAADKKTAVDMSGGTVTVLEKVPVSKGQLKQYFYETKCNPMGYTKEGCRGIDKRHWNSQCRTTQSYVRALTMDSKKRIGWRFIRIDTSCVCTLTIKRGR
B1: the “# of motor neurons” value in data set [1] ((+)BDNF/(−)βMCD group, exposed to kainate) stood at 40±4; in data set [1] ((+)BDNF/(−)βMCD group, exposed to vehicle), 57±7. Also, the excitotoxic cell death result in data set [1] was “Excitotoxic cell death occurred”. Also, the “survival rate (survival free of ventilatory support)” value with ALS patients was “lower than in the placebo group”.

The values above are taken from US20070037833A1, “Compositions and methods for inhibiting neurodegeneration” (priority 2005, published 2007).
